Reference: BigSolDB 2.1

CC(C)[C@H](C)[C@@H](O)[C@H](O)[C@@H](C)[C@H]1CC[C@H]2[C@@H]3COC(=O)[C@H]4C[C@H](O)[C@H](O)C[C@]4(C)[C@H]3CC[C@]12C
solubility (mole fraction)
Conditions	278.15 K	283.15 K	288.15 K	293.15 K	298.15 K	303.15 K	308.15 K	313.15 K	318.15 K	323.15 K
in THF	0.16	0.185	0.21	0.239	0.269	0.297	0.328	0.361	0.395	0.43
in acetone	0.09	0.106	0.124	0.145	0.166	0.188	0.213	0.239	0.267	0.296
in acetonitrile	0.00057	0.00067	0.00078	0.0009	0.00103	0.00118	0.00133	0.00149	0.00167	0.00186
in chloroform	0.00083	0.00095	0.00109	0.00125	0.00142	0.0016	0.00181	0.00204	0.00229	0.00256
in isopropanol	0.00031	0.00036	0.00041	0.00047	0.00054	0.00062	0.0007	0.0008	0.00091	0.00104
in methanol	0.0321	0.0377	0.0442	0.0511	0.0588	0.0675	0.077	0.0875	0.099	0.112
in n-butanol	0.00046	0.00054	0.00062	0.00071	0.00082	0.00093	0.00106	0.00121	0.00137	0.00155
in n-heptane	7e-05	0.0001	0.00014	0.00018	0.00022	0.00028	0.00033	0.00039	0.00046	0.00052
in n-hexane	9e-05	0.00012	0.00016	0.0002	0.00025	0.00031	0.00037	0.00044	0.00051	0.00059
